According to US10189839B2, “Tricyclic imidazole compounds as inhibitors of tryptophan hydroxylase” (ACTELION PHARMACEUTICALS LTD, priority 2013, dated 2019):

Biological target: T1, full length human TPH1 (Homo sapiens, UniProt P17752)
T1 construct: To generate the enzyme, full length human TPH1 is cloned into the plasmid pET20b(+); made in house; host or cells: E. coli
T1 sequence (P17752 1-444): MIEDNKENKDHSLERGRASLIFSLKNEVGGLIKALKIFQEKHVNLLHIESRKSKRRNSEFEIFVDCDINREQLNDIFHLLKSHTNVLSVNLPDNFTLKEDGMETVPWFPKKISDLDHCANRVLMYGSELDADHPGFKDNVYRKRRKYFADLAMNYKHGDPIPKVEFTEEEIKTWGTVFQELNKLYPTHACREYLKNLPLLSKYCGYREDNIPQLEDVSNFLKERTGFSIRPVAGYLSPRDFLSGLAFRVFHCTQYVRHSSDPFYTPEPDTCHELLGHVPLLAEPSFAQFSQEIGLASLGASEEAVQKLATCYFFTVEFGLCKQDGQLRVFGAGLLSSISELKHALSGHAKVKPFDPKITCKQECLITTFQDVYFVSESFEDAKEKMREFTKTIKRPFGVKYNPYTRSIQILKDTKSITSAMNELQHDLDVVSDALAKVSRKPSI
Experiment: Biochemical in vitro assay using fluorescence readout (TPH1 enzyme activity)
Conditions: Table 1, mean where determined several times
Outline: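 E. coli-expressed full-length human TPH1 (40-80 nM), affinity- and size-exclusion-purified, incubated 60 min at 15° C. in 0.1M Tris-HCl pH 7.6 with 1 mM DTT, 0.2 mg/ml catalase, 100 μM 6-methyltetrahydropterine and 40 μM L-tryptophan. 5-Hydroxy-L-tryptophan read by fluorescence (ex 300/em 540 nm) after HClO4 quench; IC50 versus vehicle, mean where repeated.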

| Compound | IC50 [nM] |
| --- | --- |
| N#Cc1ccc(C2c3c(nc4n3CCCC4)CCN2C(=O)COc2ccc(C(=O)NC3CC3)nc2Cl)c(F)c1 (stereo not shown) [Example 1.22.2, 6-chloro-5-(2-(1-(4-cyano-2-fluorophenyl)-3,4,6,7,8,9-hexahydroimidazo[1,2-a:5,4-c′]dipyridin-2(1H)-yl)-2-oxoethoxy)-N-cyclopropylpicolinamide] | 28 |
| CCc1nc(NS(C)(=O)=O)ncc1OCC(=O)N1CCc2nc3n(c2C1c1ccc(C2CC2)cc1F)CCCC3 (stereo not shown) [Example 1.8.7, N-(5-(2-(1-(4-cyclopropyl-2-fluorophenyl)-3,4,6,7,8,9-hexahydroimidazo[1,2-a:5,4-c′]dipyridin-2(1H)-yl)-2-oxoethoxy)-4-ethylpyrimidin-2-yl)methanesulfonamide] | 54 |
| Cc1cnc(C2c3c(nc4n3CCCC4)CCN2C(=O)COc2ccc(NS(C)(=O)=O)nc2Cl)c(F)c1 (stereo not shown) [Example 1.6.1, N-(6-chloro-5-(2-(1-(3-fluoro-5-methylpyridin-2-yl)-3,4,6,7,8,9-hexahydroimidazo[1,2-a:5,4-c′]dipyridin-2(1H)-yl)-2-oxoethoxy)pyridin-2-yl)methanesulfonamide] | 58 |
| Cc1ccc(C2c3c(nc4n3CCCC4)CCN2C(=O)COc2ccc(C(F)(F)F)cc2Cl)c(F)c1F (stereo not shown) [Example 1.9.5, 2-(2-chloro-4-(trifluoromethyl)phenoxy)-1-(1-(2,3-difluoro-4-methylphenyl)-3,4,6,7,8,9-hexahydroimidazo[1,2-a:5,4-c′]dipyridin-2(1H)-yl)ethanone] | 87 |
| Cc1ccc(C2c3c(nc4n3CCCC4)CCN2C(=O)COc2ccc(NS(C)(=O)=O)nc2Cl)c(F)c1 (stereo not shown) [Example 1.2.1, N-(6-chloro-5-(2-(1-(2-fluoro-4-methylphenyl)-3,4,6,7,8,9-hexahydroimidazo[1,2-a:5,4-c′]dipyridin-2(1H)-yl)-2-oxoethoxy)pyridin-2-yl)methanesulfonamide] | 41 |
| CCc1nc(NS(C)(=O)=O)ccc1OCC(=O)N1CCc2nc3n(c2[C@@H]1c1sc(C)nc1C)CCCC3 [Example 1.10.16, (R)-N-(5-(2-(1-(2,4-dimethylthiazol-5-yl)-3,4,6,7,8,9-hexahydroimidazo[1,2-a:5,4-c′]dipyridin-2(1H)-yl)-2-oxoethoxy)-6-ethylpyridin-2-yl)methanesulfonamide] | 6 |
| CCc1nc(NS(C)(=O)=O)ncc1OCC(=O)N1CCc2nc3n(c2C1c1ccc(C)c(F)c1F)CCCC3 (stereo not shown) [Example 1.9.9, N-(5-(2-(1-(2,3-difluoro-4-methylphenyl)-3,4,6,7,8,9-hexahydroimidazo[1,2-a:5,4-c′]dipyridin-2(1H)-yl)-2-oxoethoxy)-4-ethylpyrimidin-2-yl)methanesulfonamide] | 58 |

Now from value to compound:

| IC50 [nM] | Compound |
| --- | --- |
| 15 | Cc1ccc(C2c3c(nc4n3CCS4)CCN2C(=O)COc2ccc(C(=O)NC3CC3)nc2Cl)c(F)c1F (stereo not shown) [Example 4.4.2, 6-chloro-N-cyclopropyl-5-(2-(5-(2,3-difluoro-4-methylphenyl)-2,3,7,8-tetrahydrothiazolo[2′,3′:2,3]imidazo[4,5-c]pyridin-6(5H)-yl)-2-oxoethoxy)picolinamide] |
| 54 | CCc1nc(C)ccc1OCC(=O)N1CCc2nc3n(c2C1c1ccc(C2CC2)cc1F)CCNC3 (stereo not shown) [Example 5.2.3, 1-(1-(4-cyclopropyl-2-fluorophenyl)-3,4,6,7,8,9-hexahydropyrido[4′,3′:4,5]imidazo[1,2-a]pyrazin-2(1H)-yl)-2-((2-ethyl-6-methylpyridin-3-yl)oxy)ethanone] |
| 76 | CCc1nc(NS(=O)(=O)N(C)C)ccc1OCC(=O)N1CCc2nc3n(c2C1c1ccc(Cl)cc1F)CCS3 (stereo not shown) [Example 4.1.7, N-(5-(2-(5-(4-chloro-2-fluorophenyl)-2,3,7,8-tetrahydrothiazolo[2′,3′:2,3]imidazo[4,5-c]pyridin-6(5H)-yl)-2-oxoethoxy)-6-ethylpyridin-2-yl)-N′,N′-dimethyl-sulfamide] |
